Laboratory results as given in ChEMBL document CHEMBL4476887, “Lysyl oxidase-like 2 inhibitors and uses thereof” (2018).

Molecular target: T1, Lysyl oxidase homolog 2 (Homo sapiens, UniProt Q9Y4K0)
T1 sequence (Q9Y4K0 whole entry): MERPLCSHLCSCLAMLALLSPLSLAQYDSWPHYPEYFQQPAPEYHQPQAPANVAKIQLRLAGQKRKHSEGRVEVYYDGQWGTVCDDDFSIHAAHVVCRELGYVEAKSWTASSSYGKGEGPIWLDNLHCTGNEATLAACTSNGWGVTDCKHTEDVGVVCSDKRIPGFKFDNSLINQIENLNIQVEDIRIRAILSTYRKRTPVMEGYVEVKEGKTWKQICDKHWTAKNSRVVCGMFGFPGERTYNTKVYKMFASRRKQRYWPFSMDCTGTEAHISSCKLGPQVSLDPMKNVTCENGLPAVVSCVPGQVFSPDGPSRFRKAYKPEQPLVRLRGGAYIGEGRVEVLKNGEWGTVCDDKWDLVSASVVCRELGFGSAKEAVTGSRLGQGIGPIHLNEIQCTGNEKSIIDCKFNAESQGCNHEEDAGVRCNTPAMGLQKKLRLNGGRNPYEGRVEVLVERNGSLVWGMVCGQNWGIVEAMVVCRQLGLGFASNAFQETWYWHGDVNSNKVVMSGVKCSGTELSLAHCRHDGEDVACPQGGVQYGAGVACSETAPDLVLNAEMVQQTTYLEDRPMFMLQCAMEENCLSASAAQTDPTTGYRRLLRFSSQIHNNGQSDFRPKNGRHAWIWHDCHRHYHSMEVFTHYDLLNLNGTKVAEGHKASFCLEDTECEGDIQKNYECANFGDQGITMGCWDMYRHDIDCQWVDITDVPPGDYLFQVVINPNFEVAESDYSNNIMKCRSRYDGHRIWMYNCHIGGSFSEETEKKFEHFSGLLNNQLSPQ
Test: Inhibition of human LOXL2 expressed in CHO cells incubated for 2 hrs followed by 1,5-Diaminopentane addition by Amplex Red fluorescence based assay
Format: cell-based

Compound	IC50
C#Cc1ccc2cc(CN)[nH]c(=O)c2c1	< 300 nM
NCc1cc(Oc2cccc(C(=O)Nc3ccccc3)c2)n2nccc2n1	300 to 1000 nM
NCCc1nc2cc(Cl)ccc2o1	< 300 nM
COc1ccc(-c2ccc3[nH]c(CN)cc3c2)cn1	300 to 1000 nM
NCc1cnnc(Oc2cccc(C(=O)Nc3ccccc3)c2)c1	< 300 nM
NCc1nc2cc(Cl)ccc2[nH]1	< 300 nM
NCc1cc2ccccc2s1	300 to 1000 nM
NCc1cc2cc(-c3ccc4nccn4c3)ccc2[nH]1	< 300 nM
NCc1nc2ncccc2[nH]1	< 300 nM
NCc1cc(O)n2nccc2n1	300 to 1000 nM
NCCc1cc2ccccc2o1	> 1000 nM
NCc1cc2cc(I)ccc2[nH]1	< 300 nM
Cc1c(F)ccc2cc(CN)[nH]c12	> 1000 nM
NCc1cc2cc(F)ccc2s1	< 300 nM
NCc1cc2ccccc2c(=O)[nH]1	300 to 1000 nM
NCc1cc2cc(Br)ccc2s1	< 300 nM
CC(CN)c1nc2ccccc2s1 (racemic)	300 to 1000 nM
NCc1cc2ccc(C#Cc3ccccc3)cc2c(=O)[nH]1	< 300 nM
NCc1cc2cc(Cl)ccc2[nH]1	300 to 1000 nM
NCc1cc2ccccc2o1	300 to 1000 nM
Cn1c(CN)cc2ccccc21	> 1000 nM
NCCc1nc2ccccc2s1	< 300 nM
NCCc1nc2cccc(Cl)c2o1	< 300 nM
NCc1nc2ccccc2[nH]1	< 300 nM

Compound	IC50
NCc1cc2cc(-c3cncc4ccccc34)ccc2[nH]1	< 300 nM
NCc1cc2cc(Br)ccc2o1	> 1000 nM
NCc1cc(=O)[nH]c2ccccc12	> 1000 nM
NCc1cc2ncccc2[nH]1	< 300 nM
NCCc1nc(-c2ccncc2)cs1	300 to 1000 nM
NCc1cc2cc(-c3ccc(OCc4ccccc4)nc3)ccc2[nH]1	300 to 1000 nM
NCc1cc2cc(-c3ccc(F)cc3)ccc2[nH]1	< 300 nM
NCc1cc2c(cn1)ncn2-c1cccc(C(=O)Nc2ccccc2)c1	< 300 nM
NCc1cc2ccc(-c3ccc(F)cc3)cc2c(=O)[nH]1	< 300 nM
NCc1cc(Nc2cccc(C(=O)Nc3ccccc3)c2)n2ccnc2n1	< 300 nM
NCc1cccnn1	< 300 nM
NCc1cc2ccc(-n3cc(Br)cn3)cc2c(=O)[nH]1	< 300 nM
NCc1ccc2ncccc2c1	> 1000 nM
NCc1ccc2[nH]ccc2n1	> 1000 nM
NCc1cc2ccc(-c3ccccc3)cc2c(=O)[nH]1	< 300 nM
NCc1cnccn1	< 300 nM
NCc1nc2cc(Cl)ccc2s1	300 to 1000 nM
NCCc1nc2cc(F)ccc2s1	< 300 nM
NCc1cc2ccc(Br)cc2c(=O)[nH]1	< 300 nM
NCCc1nc2ccccc2o1	300 to 1000 nM
COc1ccc2[nH]c(CN)cc2c1	300 to 1000 nM
NCC(O)c1cc2ccccc2s1 (racemic)	> 1000 nM
NCc1cc2ccc(-c3cncc(C(=O)NCc4ccccc4)c3)cc2s1	< 300 nM
NCc1sc2ccccc2c1Cl	300 to 1000 nM

Compound	IC50
NCc1cc2cc(-c3cccnc3)ccc2s1	< 300 nM
NCc1cc2cc(-c3cncc(O)c3)ccc2[nH]1	300 to 1000 nM
NCc1cc2ccc(Br)cc2s1	< 300 nM
NCc1nc2cc3ccccc3cc2[nH]1	< 300 nM
CC(C)(C)c1ccc2oc(CN)nc2c1	< 300 nM
NCc1cc2cc(Br)ccc2[nH]1	< 300 nM
NCc1cc(Oc2cccc(C(=O)Nc3ccccc3)c2)n2ccnc2n1	< 300 nM
NCc1nc2ccccc2s1	< 300 nM
NCc1cc2cc(-c3cnc4ccccc4c3)ccc2[nH]1	< 300 nM
NCCc1nc2ccc(F)cc2[nH]1	> 1000 nM
NCc1cc2c(cn1)ncn2Cc1cccc(C(=O)Nc2ccccc2)c1	> 1000 nM
NCc1cc2cc(-c3ccc(Oc4ccccc4)nc3)ccc2[nH]1	< 300 nM
NCc1cc2cc(C3CC3)ccc2s1	< 300 nM
NCc1cc2ccc(-c3cccnc3)cc2s1	< 300 nM
NCc1cc2ccccc2[nH]1 [2-INDOLYLMETHANAMINE]	300 to 1000 nM
NCc1nc2cc(Br)cnc2[nH]1	< 300 nM
NCc1ccc2[nH]cnc2c1	> 1000 nM
Cn1cc(-c2ccc3[nH]c(CN)cc3c2)cn1	300 to 1000 nM
NCc1cc2ccc(-c3cnc4ccccc4c3)cc2c(=O)[nH]1	< 300 nM
NCc1cc2cc(-c3cccnc3)ccc2[nH]1	< 300 nM
NCc1cc2ccc(-c3cncc(C(=O)Nc4ccccc4)c3)cc2s1	< 300 nM
Cc1c(CN)oc2ccc(F)cc12	> 1000 nM
NCCc1cc2ccccc2s1	> 1000 nM
COC(=O)c1cncc(-c2ccc3[nH]c(CN)cc3c2)c1	< 300 nM

Compound	IC50
NCCc1nc(-c2ccccc2)cs1	300 to 1000 nM
NCCc1cc2ccccc2[nH]1	> 1000 nM
CC(C)(C)c1ccc2sc(CN)cc2c1	< 300 nM
NCc1cc(=O)c2cc(Br)ccc2s1	< 300 nM
Cc1ccc2[nH]c(CN)cc2c1	300 to 1000 nM
NCc1cc2cc(F)ccc2[nH]1	> 1000 nM
NCCc1nc2ccccc2[nH]1	> 1000 nM
Cc1cc(Br)cc2cc(CN)oc12	< 300 nM
NCCc1nc2cc(Cl)ccc2s1	< 300 nM
NCc1cc2occc2s1	> 1000 nM
NCc1nc2ccccc2o1	> 1000 nM
COc1ccc2cc(CN)[nH]c(=O)c2c1	< 300 nM
Cn1cnc2ccc(-c3ccc4[nH]c(CN)cc4c3)cc21	< 300 nM
NCC1=CC(=O)c2ccccc2C1=O	< 300 nM
NCCc1nc2cc(Cl)ccc2[nH]1	> 1000 nM
COc1ncccc1-c1ccc2[nH]c(CN)cc2c1	300 to 1000 nM
NCCc1nn2cnnc2s1	> 1000 nM
NCc1cc2ccncc2[nH]1	< 300 nM
NCc1ccnc(Oc2cccc(C(=O)Nc3ccccc3)c2)n1	300 to 1000 nM
NCc1cc2ccc(-c3ccc(C(=O)Nc4ccccc4)nc3)cc2s1	< 300 nM
NCc1ccnnc1	300 to 1000 nM
